How the values were obtained:
[1] = molecular target: T1, Metabotropic glutamate receptor 7 (Rattus norvegicus, UniProt P35400); assay: Positive allosteric modulation of rat mGlu7 receptor expressed in HEK293 cells co-expressing Gai5 assessed as potentiation of L-AP4-induced calcium mobilization preincubated for 140 secs and treated with EC20 L-AP4 for 125 secs and followed by subsequent addition of EC80 L-AP4 by Fluo-4-AM dye based fluorescence assay; type: functional, cell-based; settings: read-out: EC50
[2] = molecular target: Metabotropic glutamate receptor 7 (Rattus norvegicus) (UniProt P35400); assay: Positive allosteric modulation of rat mGlu7 receptor expressed in HEK293 cells co-expressing Gai5 assessed as potentiation of L-AP4-induced calcium mobilization preincubated for 140 secs and treated with EC20 L-AP4 for 125 secs and followed by subsequent addition of EC80 L-AP4 by Fluo-4-AM dye based fluorescence assay relative to maximal induction of L-AP4; type: functional, cell-based; settings: filed as positive allosteric modulator, time 140.0 sec
[3] = molecular target: Sodium-dependent dopamine transporter (Homo sapiens, UniProt Q01959); assay: Displacement of […] from recombinant human Dopamine transporter after 120 mins by scintillation counting analysis; type: ADME
[4] = Fraction unbound in rat plasma at 5 uM incubated for 4 hrs by equilibrium dialysis based LC-MS/MS analysis; type: ADME, cell-free
[5] = Fraction unbound in mouse brain at 5 uM incubated for 6 hrs by equilibrium dialysis based LC-MS/MS analysis; type: ADME, tissue-based
[6] = Hepatic intrinsic clearance in mouse liver microsomes at 1 uM preincubated for 5 mins followed by NADPH addition and measured up to 45 mins by LC-MS/MS analysis; type: ADME, Microsome; settings: read-out: CLH
[7] = Fraction unbound in rat brain at 5 uM incubated for 6 hrs by equilibrium dialysis based LC-MS/MS analysis; type: ADME, tissue-based
[8] = Plasma to brain permeability coefficient, Kp of the compound in Sprague-Dawley rat at 0.2 mg/kg, iv measured after 0.25 hrs by LC-MS/MS analysis; type: ADME, organism-based
[9] = Fraction unbound in mouse plasma at 5 uM incubated for 4 hrs by equilibrium dialysis based LC-MS/MS analysis; type: ADME, cell-free
[10] = molecular target: T1, Metabotropic glutamate receptor 7; assay: Positive allosteric modulation of rat mGlu7 expressed in HEK293 cells co- expressing GIRK assessed as potentiation of L-AP4-induced thallium flux incubated for 140 sec by FluoZin2-AM dye based fluorescence analysis; type: cell-based
[11] = Unbound plasma to brain permeability coefficient, Kp of the compound in Sprague-Dawley rat at 0.2 mg/kg, iv measured after 0.25 hrs by LC-MS/MS analysis; type: ADME, organism-based; settings: read-out: K(p,uu,brain)
[12] = Hepatic intrinsic clearance in rat liver microsomes at 1 uM preincubated for 5 mins followed by NADPH addition and measured up to 45 mins by LC-MS/MS analysis; type: ADME, Microsome; settings: read-out: CLH
[13] = molecular target: Metabotropic glutamate receptor 7 (Rattus norvegicus) (UniProt P35400); assay: Positive allosteric modulation of rat mGlu7 expressed in HEK293 cells co- expressing GIRK assessed as potentiation of L-AP4-induced thallium flux incubated for 140 sec by FluoZin2-AM dye based fluorescence analysis relative to maximal induction of L-AP4; type: cell-based; settings: filed as positive allosteric modulator
[14] = Plasma to brain permeability coefficient, Kp of the compound in rat; type: ADME, cell-free
[15] = molecular target: Metabotropic glutamate receptor 1 (Homo sapiens, UniProt Q13255); assay: Negative allosteric modulation of mGlu1 receptor (unknown origin)
[16] = molecular target: Metabotropic glutamate receptor 2 (Homo sapiens, UniProt Q14416); assay: Negative allosteric modulation of mGlu2 receptor (unknown origin)
[17] = Unbound plasma to brain permeability coefficient, Kp of the compound in rat; type: ADME, cell-free; settings: read-out: K(p,uu,brain)
[18] = molecular target: Metabotropic glutamate receptor 5 (Homo sapiens, UniProt P41594); assay: Negative allosteric modulation of mGlu5 receptor (unknown origin)
[19] = molecular target: Metabotropic glutamate receptor 4 (Homo sapiens, UniProt Q14833); assay: Negative allosteric modulation of mGlu4 receptor (unknown origin)
[20] = molecular target: Metabotropic glutamate receptor 8 (Homo sapiens, UniProt O00222); assay: Negative allosteric modulation of mGlu8 receptor (unknown origin)
[21] = molecular target: Metabotropic glutamate receptor 3 (Homo sapiens, UniProt Q14832); assay: Negative allosteric modulation of mGlu3 receptor (unknown origin)

Sequence of Metabotropic glutamate receptor 7 (Rattus norvegicus) (P35400 whole entry): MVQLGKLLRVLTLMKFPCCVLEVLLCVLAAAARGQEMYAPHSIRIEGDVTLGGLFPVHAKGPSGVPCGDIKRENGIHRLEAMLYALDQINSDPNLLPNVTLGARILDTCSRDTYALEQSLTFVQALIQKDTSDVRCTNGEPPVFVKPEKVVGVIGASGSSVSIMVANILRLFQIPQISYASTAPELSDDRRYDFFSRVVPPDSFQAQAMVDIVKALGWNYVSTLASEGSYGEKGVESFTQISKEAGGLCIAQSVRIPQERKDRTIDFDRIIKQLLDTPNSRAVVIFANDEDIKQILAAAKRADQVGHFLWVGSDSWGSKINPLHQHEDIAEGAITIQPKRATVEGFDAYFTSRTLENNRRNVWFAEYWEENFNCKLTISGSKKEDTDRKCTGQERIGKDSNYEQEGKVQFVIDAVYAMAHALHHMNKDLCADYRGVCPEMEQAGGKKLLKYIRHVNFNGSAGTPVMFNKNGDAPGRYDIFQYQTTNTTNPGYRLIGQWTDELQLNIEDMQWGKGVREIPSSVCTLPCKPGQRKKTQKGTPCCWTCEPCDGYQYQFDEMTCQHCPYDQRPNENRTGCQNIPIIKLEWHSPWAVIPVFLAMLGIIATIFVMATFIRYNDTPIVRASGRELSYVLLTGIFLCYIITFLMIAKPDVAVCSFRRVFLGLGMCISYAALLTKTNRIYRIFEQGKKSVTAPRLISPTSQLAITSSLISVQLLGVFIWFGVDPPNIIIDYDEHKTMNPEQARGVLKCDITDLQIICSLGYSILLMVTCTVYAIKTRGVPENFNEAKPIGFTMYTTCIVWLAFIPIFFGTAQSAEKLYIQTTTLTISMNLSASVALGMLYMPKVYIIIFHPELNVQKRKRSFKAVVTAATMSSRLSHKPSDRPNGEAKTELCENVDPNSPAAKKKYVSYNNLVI
T1 sequence (P35400 whole entry): as above
Sequence of Sodium-dependent dopamine transporter (Q01959 whole entry): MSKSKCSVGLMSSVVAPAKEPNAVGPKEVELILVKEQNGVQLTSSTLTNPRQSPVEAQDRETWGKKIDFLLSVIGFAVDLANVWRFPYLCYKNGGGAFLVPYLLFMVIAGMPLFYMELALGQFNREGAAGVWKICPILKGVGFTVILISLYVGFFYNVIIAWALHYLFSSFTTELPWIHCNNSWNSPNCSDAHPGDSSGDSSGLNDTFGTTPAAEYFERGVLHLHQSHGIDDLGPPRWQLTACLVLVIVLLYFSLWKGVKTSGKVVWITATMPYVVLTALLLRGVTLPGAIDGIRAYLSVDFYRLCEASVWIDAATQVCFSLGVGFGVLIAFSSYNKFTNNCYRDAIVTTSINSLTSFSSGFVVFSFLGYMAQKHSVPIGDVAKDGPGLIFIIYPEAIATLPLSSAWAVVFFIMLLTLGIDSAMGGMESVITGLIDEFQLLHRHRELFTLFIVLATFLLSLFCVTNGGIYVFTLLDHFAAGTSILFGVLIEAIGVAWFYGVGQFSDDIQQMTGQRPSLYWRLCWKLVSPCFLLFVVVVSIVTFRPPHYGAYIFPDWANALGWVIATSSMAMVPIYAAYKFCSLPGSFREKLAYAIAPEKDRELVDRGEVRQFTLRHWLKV
Sequence of Metabotropic glutamate receptor 1 (Q13255 whole entry): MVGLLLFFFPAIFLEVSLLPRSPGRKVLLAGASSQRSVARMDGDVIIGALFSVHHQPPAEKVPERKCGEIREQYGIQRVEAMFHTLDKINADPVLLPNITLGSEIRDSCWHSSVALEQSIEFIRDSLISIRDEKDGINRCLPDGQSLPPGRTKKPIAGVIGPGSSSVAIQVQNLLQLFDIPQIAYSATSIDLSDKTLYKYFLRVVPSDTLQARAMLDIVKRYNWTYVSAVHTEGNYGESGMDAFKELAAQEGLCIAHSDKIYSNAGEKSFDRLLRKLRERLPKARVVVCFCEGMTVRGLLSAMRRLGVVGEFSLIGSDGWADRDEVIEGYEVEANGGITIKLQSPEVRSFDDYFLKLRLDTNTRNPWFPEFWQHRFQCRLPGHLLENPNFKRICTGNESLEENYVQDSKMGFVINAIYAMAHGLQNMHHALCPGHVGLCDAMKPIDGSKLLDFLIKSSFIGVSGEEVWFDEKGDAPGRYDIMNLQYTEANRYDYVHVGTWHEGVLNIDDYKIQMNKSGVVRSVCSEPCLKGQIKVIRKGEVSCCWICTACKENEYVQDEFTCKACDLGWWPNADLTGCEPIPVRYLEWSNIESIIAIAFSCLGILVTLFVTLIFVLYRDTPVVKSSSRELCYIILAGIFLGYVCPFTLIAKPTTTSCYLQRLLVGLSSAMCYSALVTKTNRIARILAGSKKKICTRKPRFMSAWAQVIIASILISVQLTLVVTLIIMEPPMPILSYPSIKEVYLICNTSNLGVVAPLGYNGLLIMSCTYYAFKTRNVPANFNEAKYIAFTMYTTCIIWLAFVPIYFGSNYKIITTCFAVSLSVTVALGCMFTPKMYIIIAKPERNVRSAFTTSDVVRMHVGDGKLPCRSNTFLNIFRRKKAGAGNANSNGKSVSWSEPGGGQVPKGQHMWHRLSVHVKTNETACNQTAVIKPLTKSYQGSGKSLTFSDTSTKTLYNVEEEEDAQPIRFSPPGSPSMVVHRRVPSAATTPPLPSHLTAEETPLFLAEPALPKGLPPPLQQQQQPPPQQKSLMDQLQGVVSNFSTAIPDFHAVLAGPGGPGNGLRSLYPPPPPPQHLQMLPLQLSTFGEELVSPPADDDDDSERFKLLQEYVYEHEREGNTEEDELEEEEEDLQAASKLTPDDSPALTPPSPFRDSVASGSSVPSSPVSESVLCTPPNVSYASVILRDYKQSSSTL
Sequence of Metabotropic glutamate receptor 8 (O00222 whole entry): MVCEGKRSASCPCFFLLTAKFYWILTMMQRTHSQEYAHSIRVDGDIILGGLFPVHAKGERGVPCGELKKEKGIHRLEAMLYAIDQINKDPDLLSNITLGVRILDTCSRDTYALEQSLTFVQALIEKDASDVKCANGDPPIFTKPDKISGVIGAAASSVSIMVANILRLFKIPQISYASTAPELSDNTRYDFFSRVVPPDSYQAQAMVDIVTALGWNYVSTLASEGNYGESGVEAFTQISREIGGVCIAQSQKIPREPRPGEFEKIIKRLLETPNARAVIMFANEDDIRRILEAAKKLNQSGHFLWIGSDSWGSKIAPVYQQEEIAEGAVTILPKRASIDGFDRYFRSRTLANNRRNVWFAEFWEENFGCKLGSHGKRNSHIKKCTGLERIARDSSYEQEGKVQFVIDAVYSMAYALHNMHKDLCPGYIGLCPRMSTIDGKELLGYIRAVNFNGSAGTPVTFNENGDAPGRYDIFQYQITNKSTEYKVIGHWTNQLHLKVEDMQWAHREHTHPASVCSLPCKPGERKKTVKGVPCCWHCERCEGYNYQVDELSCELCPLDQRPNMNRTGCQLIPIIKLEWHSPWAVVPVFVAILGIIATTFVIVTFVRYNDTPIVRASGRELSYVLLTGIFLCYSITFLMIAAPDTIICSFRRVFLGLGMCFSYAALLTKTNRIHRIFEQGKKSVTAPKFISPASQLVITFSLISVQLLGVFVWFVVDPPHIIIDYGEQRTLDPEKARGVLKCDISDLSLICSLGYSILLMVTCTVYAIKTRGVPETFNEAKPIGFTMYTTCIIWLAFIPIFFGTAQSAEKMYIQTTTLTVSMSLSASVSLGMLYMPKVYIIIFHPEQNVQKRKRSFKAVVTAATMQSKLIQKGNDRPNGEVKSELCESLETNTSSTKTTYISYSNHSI
Sequence of Metabotropic glutamate receptor 5 (P41594 whole entry): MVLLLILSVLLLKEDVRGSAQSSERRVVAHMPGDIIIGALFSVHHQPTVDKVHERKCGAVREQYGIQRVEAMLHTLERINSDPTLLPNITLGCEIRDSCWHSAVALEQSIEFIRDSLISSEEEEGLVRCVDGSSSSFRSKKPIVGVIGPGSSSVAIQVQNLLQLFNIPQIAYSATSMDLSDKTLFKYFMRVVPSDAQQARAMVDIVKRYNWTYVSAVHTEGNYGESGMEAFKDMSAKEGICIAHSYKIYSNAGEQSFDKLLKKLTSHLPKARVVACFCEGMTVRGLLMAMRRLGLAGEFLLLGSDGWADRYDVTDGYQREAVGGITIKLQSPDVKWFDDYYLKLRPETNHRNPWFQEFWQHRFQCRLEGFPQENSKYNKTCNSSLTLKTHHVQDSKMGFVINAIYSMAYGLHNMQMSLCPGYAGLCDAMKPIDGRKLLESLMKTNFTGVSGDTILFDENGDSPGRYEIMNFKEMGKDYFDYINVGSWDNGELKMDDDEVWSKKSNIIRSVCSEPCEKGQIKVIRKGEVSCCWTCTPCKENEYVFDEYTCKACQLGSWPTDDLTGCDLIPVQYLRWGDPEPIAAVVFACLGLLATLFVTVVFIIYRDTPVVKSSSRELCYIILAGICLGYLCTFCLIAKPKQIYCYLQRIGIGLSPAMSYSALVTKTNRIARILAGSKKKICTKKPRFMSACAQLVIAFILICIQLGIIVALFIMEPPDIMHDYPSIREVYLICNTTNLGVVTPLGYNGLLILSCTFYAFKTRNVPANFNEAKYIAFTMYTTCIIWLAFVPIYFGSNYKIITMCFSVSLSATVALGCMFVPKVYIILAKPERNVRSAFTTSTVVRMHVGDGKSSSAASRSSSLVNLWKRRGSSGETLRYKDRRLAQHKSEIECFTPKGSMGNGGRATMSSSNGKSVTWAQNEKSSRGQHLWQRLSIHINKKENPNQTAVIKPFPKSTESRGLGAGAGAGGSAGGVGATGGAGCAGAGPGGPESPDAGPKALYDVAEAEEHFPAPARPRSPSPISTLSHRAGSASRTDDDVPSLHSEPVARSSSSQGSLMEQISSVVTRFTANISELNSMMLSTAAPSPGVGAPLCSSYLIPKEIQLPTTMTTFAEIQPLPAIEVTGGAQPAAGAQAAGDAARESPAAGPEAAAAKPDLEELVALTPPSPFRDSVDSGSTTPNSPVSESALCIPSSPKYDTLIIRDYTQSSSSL

| SMILES | EC50 [1] | Activity [2] | other results |
| --- | --- | --- | --- |
| N#Cc1cnc2c(OCC3CCOC3)cccc2c1N1CCN(c2ccccc2F)CC1 (single isomer, unassigned; (+)) [listing 1 of 2 here] | 1.9 µM |  |  |
| CC(C)Oc1cc(F)cc2c(N3CCN(c4ccccc4F)CC3)c(C#N)cnc12 | 0.69 µM | 82% | Ki [3]: > 10 µM; fraction unbound at 4 h, 5 µM [4]: 0.005; fraction unbound at 6 h, 5 µM [5]: 0.001; CLint scaled at 1 µM [6]: 4.57 L/h/kg; fraction unbound at 6 h, 5 µM [7]: 0.001; Kp at 0.25 h [8]: 4.99; fraction unbound at 4 h, 5 µM [9]: 0.004; EC50 [10]: 0.75 µM; Kp uu at 0.25 h [11]: 1; CLint scaled at 1 µM [12]: 3.04 L/h/kg; Activity [13]: 54.5% |
| N#Cc1cnc2c(N3CCC(F)(F)CC3)cccc2c1N1CCN(c2ccccc2F)CC1 | > 10 µM | 22% |  |
| N#Cc1cnc2c(OC3CCC3)cc(F)cc2c1N1CCN(c2ccccc2F)CC1 | > 10 µM | 23% |  |
| N#Cc1cnc2c(OCC3CCOC3)cccc2c1N1CCN(c2ccccc2F)CC1 (racemic) [listing 1 of 2 here] | 1.3 µM |  |  |
| N#Cc1cnc2c(OC3CCOC3)cc(F)cc2c1N1CCN(c2ccccc2F)CC1 (centres undefined) | 0.51 µM | 71% |  |
| N#Cc1cnc2c(N3CCOCC3)cccc2c1N1CCN(c2ccccc2F)CC1 | 1.3 µM | 72% | Ki [3]: > 10 µM; fraction unbound at 4 h, 5 µM [4]: 0.01; fraction unbound at 6 h, 5 µM [5]: 0.002; CLint scaled at 1 µM [6]: 4.57 L/h/kg; fraction unbound at 6 h, 5 µM [7]: 0.002; Kp at 0.25 h [8]: 6.84; fraction unbound at 4 h, 5 µM [9]: 0.01; EC50 [10]: 0.71 µM; Kp uu at 0.25 h [11]: 1.24; CLint scaled at 1 µM [12]: 3.52 L/h/kg; Activity [13]: 29.5% |
| N#Cc1cnc2c(O)cccc2c1N1CCN(c2ccccc2F)CC1 | > 10 µM | 90% |  |
| N#Cc1cnc2c(N3CCCC3)cccc2c1N1CCN(c2ccccc2F)CC1 | > 10 µM | 22% |  |
| N#Cc1cnc2c(OCC3CCOC3)cccc2c1N1CCN(c2ccccc2F)CC1 (stereo in doubt; (-)-20f) [listing 1 of 2 here] | 1.3 µM |  |  |
| N#Cc1cnc2c(-n3cncn3)cccc2c1N1CCN(c2ccccc2F)CC1 | > 10 µM | 23% |  |
| COc1c(F)c(F)cc2c(N3CCN(c4ccccc4F)CC3)c(C#N)cnc12 | 1.1 µM | 62% | IC50 [3]: 2.2 µM |
| N#Cc1cnc2c(-n3cccn3)cccc2c1N1CCN(c2ccccc2F)CC1 | > 10 µM | 22% |  |
| N#Cc1cnc2c(OC3CCOC3)cccc2c1N1CCN(c2ccccc2F)CC1 (single isomer, unassigned; (+)) [listing 1 of 2 here] | 1.1 µM |  |  |
| N#Cc1cnc2c(-n3ccnc3)cccc2c1N1CCN(c2ccccc2F)CC1 | 6.7 µM | 81% |  |
| N#Cc1cnc2c(OCC3CCOC3)cccc2c1N1CCN(c2ccccc2F)CC1 (racemic) [listing 2 of 2 here] |  | 88% |  |
| [2H]C([2H])([2H])Oc1cccc2c(N3CCN(c4ccccc4F)CC3)c(C#N)cnc12 | 1.5 µM |  |  |
| N#Cc1cnc2c(OC(F)F)cc(F)cc2c1N1CCN(c2ccccc2F)CC1 | 3.8 µM | 98% |  |

| SMILES | EC50 [1] | Activity [2] | other results |
| --- | --- | --- | --- |
| CC1CN(c2cccc3c(N4CCN(c5ccccc5F)CC4)c(C#N)cnc23)CCO1 (centres undefined) | 7.1 µM | 84% |  |
| CC(C)Oc1cccc2c(N3CCN(c4ccccc4F)CC3)c(C#N)cnc12 | 1.25 µM | 67% |  |
| N#Cc1cnc2c(OCC3CCOC3)cccc2c1N1CCN(c2ccccc2F)CC1 (single isomer, unassigned; (+)) [listing 2 of 2 here] |  | 77% |  |
| N#Cc1cnc2c(OCC3CCOC3)cccc2c1N1CCN(c2ccccc2F)CC1 (stereo in doubt; (-)-20f) [listing 2 of 2 here] |  | 89% |  |
| N#Cc1cnc2c(OCC3CCOC3)cc(F)cc2c1N1CCN(c2ccccc2F)CC1 (centres undefined) | 0.65 µM | 76% |  |
| CCOC(=O)c1cnc2c(OC)cccc2c1N1CCN(c2ccccc2F)CC1 |  |  | Kp [14]: 4.7; IC50 [15]: > 30 µM; IC50 [16]: > 30 µM; Kp uu [17]: 0.96; IC50 [18]: > 30 µM; IC50 [19]: > 30 µM; IC50 [20]: > 30 µM; IC50 [21]: > 30 µM |
| N#Cc1cnc2c(OC3CCOC3)cccc2c1N1CCN(c2ccccc2F)CC1 (single isomer, unassigned; (-)) [listing 1 of 2 here] |  | 70% |  |
| N#Cc1cnc2c(OC3CCC3)cccc2c1N1CCN(c2ccccc2F)CC1 | 1.8 µM | 67% |  |
| N#Cc1cnc2c(N3CCCCC3)cccc2c1N1CCN(c2ccccc2F)CC1 | > 10 µM | 24% |  |
| N#Cc1cnc2c(OC(F)F)cccc2c1N1CCN(c2ccccc2F)CC1 | > 10 µM | 68% |  |
| N#Cc1cnc2c(OC3CCOC3)cccc2c1N1CCN(c2ccccc2F)CC1 (single isomer, unassigned; (-)) [listing 2 of 2 here] | 1.1 µM |  |  |
| N#Cc1cnc2c(OC3CCOC3)cccc2c1N1CCN(c2ccccc2F)CC1 (racemic) [listing 1 of 2 here] | 1.3 µM |  | Ki [3]: > 10 µM; fraction unbound at 4 h, 5 µM [4]: 0.03; fraction unbound at 6 h, 5 µM [5]: 0.01; CLint scaled at 1 µM [6]: 4.55 L/h/kg; fraction unbound at 6 h, 5 µM [7]: 0.006; Kp at 0.25 h [8]: 4.36; fraction unbound at 4 h, 5 µM [9]: 0.02; EC50 [10]: 1 µM; Kp uu at 0.25 h [11]: 0.79; CLint scaled at 1 µM [12]: 3.24 L/h/kg |
| N#Cc1cnc2c(O)cc(F)cc2c1N1CCN(c2ccccc2F)CC1 | > 10 µM | 90% |  |
| N#Cc1cnc2c(OC3CCOC3)cccc2c1N1CCN(c2ccccc2F)CC1 (single isomer, unassigned; (+)) [listing 2 of 2 here] |  | 85% |  |
| N#Cc1cnc2c(OC3CCOC3)cccc2c1N1CCN(c2ccccc2F)CC1 (racemic) [listing 2 of 2 here] |  | 74% | Activity [13]: 62.2% |
| COc1ccc(F)c2c(N3CCN(c4ccccc4F)CC3)c(C#N)cnc12 | > 10 µM | 35% | IC50 [3]: 4 µM |
| COc1c(F)ccc2c(N3CCN(c4ccccc4F)CC3)c(C#N)cnc12 | 1.8 µM | 53% | IC50 [3]: 3 µM |
